Assay results as given in US11226337B2, “Chemoproteomic profiling of protein electrophilic and oxidative post-translational modifications” (Zenagem, LLC, priority 2017, dated 2022).
“Also recorded” adds a separate entry of the source.

Experiments:
AMD1 pyruvoyl cofactor = biological target: T1, AMD1 pyruvoyl cofactor (Homo sapiens, UniProt P17707); assay: in vitro labelling of purified reconstituted AMD1, LC-MS/MS; assay type: binding; details: 50 μM AMD1, 3 mM probe 1, overnight
T1 construct: made in house; host or cells: E. coli (vector pQE30)
T1 sequence (P17707 68-334 limits assumed): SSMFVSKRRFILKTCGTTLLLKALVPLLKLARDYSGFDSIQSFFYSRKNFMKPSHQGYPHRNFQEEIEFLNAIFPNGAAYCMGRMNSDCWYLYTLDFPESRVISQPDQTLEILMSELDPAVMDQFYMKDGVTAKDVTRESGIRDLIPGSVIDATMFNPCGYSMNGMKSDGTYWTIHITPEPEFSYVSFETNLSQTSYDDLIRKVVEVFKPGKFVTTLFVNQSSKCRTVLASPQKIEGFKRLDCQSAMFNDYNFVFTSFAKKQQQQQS
T1 sequence (P17707 1-67 partner limits assumed): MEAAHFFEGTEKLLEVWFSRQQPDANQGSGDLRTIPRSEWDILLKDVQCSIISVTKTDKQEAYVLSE
Experimental: Full-length AMD1 having an additional 12 amino acids (MRGSH6GS) (SEQ ID NO: 46) appended to the N-terminal methionine residue was expressed from the bacterial vector pQE30. The appendage contains a His6 element (SEQ ID NO: 69) to permit purification of the protein by metal ion affinity chromatography on Ni-NTA agarose (Qiagen). E. coli cell cultures were grown at 37° C. in rich LB broth (35 g/L tryptone, 20 g/L yeast extract, 5 g/L NaCl, and 0.05 g/L kanamycin (pH 7.0)) to an optical density at 600 nm of 0.6-0.8. The flasks were cooled rapidly by incubation on ice for 30 minutes prior to addition of IPTG (1 mM). Following induction, cultures were grown at 15-18° C. for an additional 16-20 hours and cells were harvested by centrifugation (8,000 g, 30 min, 4° C.). The cell paste was flash-frozen in liquid N2 and stored at −80° C. A typical yield was 8-10 g of wet cell paste per liter of culture. […]
A 100 μL solution of 50 μM purified reconstituted AMD1 in PBS was incubated overnight at ambient temperature in the presence or absence of 3 mM probe 1 (pH 7). […] Peptides were eluted from the column using a 180 minute gradient from 0% to 50% Buffer B (Buffer A: 5% acetonitrile, 95% H2O, 0.1% formic acid; Buffer B: 80% acetonitrile, 20% H2O, 0.1% formic acid) and analyzed on an LTQ-Orbitrap Finnigan mass spectrometer (Thermo Scientific). […]

HEK293T cells = assay: CellTiter-Glo luminescence cell viability assay; assay type: cell-based, human; details: probe 1 3 mM, 1 hour, 37° C., n=4; untreated 132±2
Experimental: Working stock solutions of probes and competitors were neutralized prior to treatment and media was supplemented with 10 mM Na-HEPES (pH 7.5) to enhance the buffer capacity to ensure the pH was maintained. The phenol red pH indicator of the media confirmed that there was no substantial change in pH during the treatment. Cell viability was quantified based on ATP levels in the absence and presence of probe 1 with or without competitor probe 3 using the CellTiter-Glo luminescence assay (Promega). Trypsinized HEK293T cells were diluted in serum-free DMEM supplemented with 10 mM Na-HEPES to a final concentration of 0.8 million cells/mL. To a cell culture microplate (Greiner Bio-One No. 655098; white, 96-well, 34 mm^2 growth area per well, Clear bottom), 80,000 cells (100 μL of cell suspension) were plated per well. […] After 20 minutes at ambient temperature, luminescence was measured on a Biotech Synergy 4 plate reader. Well luminescence, in relative light units (RLU), under each condition (n=4 of each) was measured to determine cell viability according to the formula: Iuntreated, Iprobe 1, and Iprobe 1/competitor 3=(132±2, 139±2, and 134±1)×10^3 RLU. “Iuntreated” refers to the intensity of luminescence of untreated cells; and “Iprobe 1” refers to the intensity of luminescence of probe-1 treated cells.

C#CCNN.Cl [probe 1, prop-2-yn-1-ylhydrazine hydrochloride]
site specificity of the reaction (AMD1 pyruvoyl cofactor): reacted specifically with the N-terminal pyruvoyl group | extent of reaction with the pyruvoyl group (AMD1 pyruvoyl cofactor; ambient temperature, hydrochloride): the reaction with probe 1 was complete; also recorded: proceeded to near-completion | Well luminescence (cell viability based on ATP levels) (HEK293T cells): 139±2 ×10^3 RLU
